Where two headings read alike, the source gives them in different places.
Tests used:
[1] = system: LANS neuroblastoma cell line; test: Toxicity against neuroblastoma cell line LANS; format: cell-based
Experimental: (§1) Compounds SM-73 and SM-85 are assayed against an array of neuroblastoma cell lines.

HEK-hNET = test: Toxicity toward HEK cells stably transfected with Norepinephrine Transporter; format: cell-based, human; details: selectivity HEK-EV vs HEK-hNET
Experimental: The term “resistance factor” is a measure of selectivity conferred upon the platinum-based compound by the inclusion of ligands that promote recognition by NET.
(§2) After overnight incubation, the platinum compound with or without an OCT inhibitor (disopyramide) was then be added to the culture medium to various concentrations. After exposure to the drug for 7 hours, the drug-containing medium was replaced with fresh, drug-free medium and the incubation was continued for 72 hours.

[2] = system: SKNSH neuroblastoma cell line; test: Toxicity against neuroblastoma cell line SKNSH; format: cell-based
Experimental: as §1

[3] = system: HEK293 transfected with human OCT2 (HEK-hOCT2); test: MTT cytotoxicity assay in HEK293 stably transfected with human OCT2; details: read-out: IC50 HEK-hOCT2; HEK293 stably transfected with human OCT2; MTT, 7 h exposure then 72 h
Experimental: (§3) Evaluation of compounds was carried out in an in-vitro cytotoxicity assay, involving a comparison between the effect of the platinum complex on human embryonic kidney cells (HEK293) transfected with human OCT1 (HEK-hOCT1) and OCT2 (HEK-hOCT2) versus those that are not transfected.
(§4) HEK293 cell lines, stably expressing hOCT1, hOCT2 and hOCT3. The following colon cancer cell lines were also used: HCT116, RKO, DLD, HT29 and SW620 purchased from American Type Tissue Culture collection.
as §2
as §3, with “Evaluation of all three classes” for “Evaluation”

[4] = system: SW620 colon cancer cell line; test: Cytotoxicity in colon cancer cell line SW620 with and without cimetidine; format: cell-based
Experimental: (§5) Platinum uptake and platinum-DNA adduct formation was then measured in these transfected cell lines. In some cases, chemical inhibitors of OCT1 were used. In general, we used disopyramide (150 μM). […] In some cases, cimetidine (3 mM) was used as a general OCT inhibitor. Cytotoxicity of some of the leads was determined in colon cancer cell lines. Described below in some detail are the methods for these studies.
as §4, §2

[5] = system: HEK-MOCK (untransfected HEK293 cells); test: MTT cytotoxicity assay in untransfected HEK293 cells; format: cell-based, human; details: 7 h drug exposure then 72 h drug-free
Experimental: as §3, §2
as §3, with “Evaluation of all three classes” for “Evaluation”

NET-expressing HEK cells = test: Uptake of platinum compounds into NET-expressing HEK cells vs empty vector HEK cells; format: cell-based, human
Description: The success of our targeting strategy can be gauged in-vitro also through comparing the uptake of the platinum complex into cells. The actual effects of this increased uptake can in turn be ascertained and quantified through comparison of DNA-binding of the platinum complexes.
Accumulation was normalized to protein content.

[6] = system: SHEP neuroblastoma cell line; test: Toxicity against neuroblastoma cell line SHEP; format: cell-based
Experimental: as §1

[7] = system: RKO colon cancer cell line; test: Cytotoxicity in colon cancer cell line RKO with and without cimetidine; format: cell-based
Experimental: as §5, §4, §2

[8] = Toxicity evaluation of treated mice (CBC, kidney and liver function, ototoxicity); details: mouse, in vivo
Experimental: An evaluation is being conducted in various body tissues/plasma to determine toxicity.
The SM-73 treated mice group was also evaluated for ototoxicity.

[9] = system: Kelly neuroblastoma cell line; test: Toxicity against neuroblastoma cell line Kelly; format: cell-based
Experimental: as §1

[10] = system: HEK293 transfected with human OCT1 (HEK-hOCT1); test: MTT cytotoxicity assay in HEK293 stably transfected with human OCT1; details: read-out: IC50 HEK-hOCT1; HEK293 stably transfected with human OCT1; MTT, 7 h exposure then 72 h
Experimental: as §3, §4, §2
as §3, with “Evaluation of all three classes” for “Evaluation”

[11] = system: NB1691 neuroblastoma cell line; test: Toxicity against neuroblastoma cell line NB1691; format: cell-based
Experimental: as §1

[12] = system: DLD colon cancer cell line; test: Cytotoxicity in colon cancer cell line DLD with and without cimetidine; format: cell-based
Experimental: as §5, §4, §2

[13] = system: SKNMC neuroblastoma cell line; test: Toxicity against neuroblastoma cell line SKNMC; format: cell-based
Experimental: as §1

[14] = Rate of inactivation of platinums by glutathione; format: physicochemical; details: platinum drug 100 μM; [GSH] 6.75 mM; [NaCl] 4.62; absorption at 260 nm
Experimental: Platinum-based compound as described herein at a 100 μM concentration was reacted with physiological concentration of GSH and the absorption at 260 nm was measured to monitor the progress of the reaction. Absorption as a function of time (0≦t≦1440 min) for platinum concentration of zero was subtracted from the absorption at each platinum concentration. Initial rates were calculated from the early time points as change in absorption over change in time.
One major pathway by which these platinum drugs get inactivated in vivo is by reaction with glutathione (GSH). We mimicked this reaction with GSH in vitro using physiological concentrations of GSH and salts. Increase in absorption at 260 nm over period of time was monitored for progress of the reaction and initial rates were calculated from the early time points in terms of the change in absorption over change in time.

[15] = system: HT29 colon cancer cell line; test: Cytotoxicity in colon cancer cell line HT29 with and without cimetidine; format: cell-based
Experimental: as §5, §4, §2

[16] = system: HCT116 colon cancer cell line; test: Cytotoxicity in colon cancer cell line HCT116 with and without cimetidine; format: cell-based
Experimental: as §5, §4, §2

neuroblastoma xenografts = test: Antitumor efficacy against neuroblastoma xenografts in mice; format: in vivo; details: compared to cisplatin (FIG. 8)
[17] = system: SHSY5Y neuroblastoma cell line; test: Toxicity against neuroblastoma cell line SHSY5Y; format: cell-based
Experimental: as §1

DNA in HEK cells = test: DNA-binding of the platinum agents in HEK cells; format: cell-based, human; details: compared to cisplatin
Experimental: After incubation, genomic DNA was isolated from the cell pellets using Wizard® Genomic DNA Purification Kit (Promega, Madison, Wis.) following the manufacturer's instructions. The genomic DNA was used for determination of platinum (ICP-MS) and DNA content (absorption spectrometry at 260 nm). Platinum-DNA adduct formation was expressed as amount of platinum per amount of DNA.

HEK-hOCT3 = test: MTT cytotoxicity assay in HEK293 stably transfected with human OCT3; format: cell-based
Description: HEK293 cell lines, stably expressing hOCT1, hOCT2 and hOCT3.

[18] = system: OCT2 (human, expressed in the cells; OCT2-dependent cytotoxicity); test: MTT cytotoxicity assay in HEK293 stably transfected with human OCT2; details: human
Experimental: as §3, §4, §2
as §3, with “Evaluation of all three classes” for “Evaluation”

[19] = system: OCT1 (human, expressed in the cells; OCT1-dependent cytotoxicity); test: MTT cytotoxicity assay in HEK293 stably transfected with human OCT1; details: human
Experimental: as §3, §4, §2
as §3, with “Evaluation of all three classes” for “Evaluation”

[20] = SW620, absence of cimetidine, read-out: IC50
[21] = SW620, cimetidine 3 mM, read-out: IC50 (in presence of cimetidine)
[22] = RK0, absence of cimetidine, read-out: IC50
[23] = RK0, cimetidine 3 mM, read-out: IC50 (in presence of cimetidine)
[24] = absence of cimetidine, read-out: IC50
[25] = cimetidine 3 mM, read-out: IC50 (in presence of cimetidine)
[26] = HT29, absence of cimetidine, read-out: IC50
[27] = HT29, cimetidine 3 mM, read-out: IC50 (in presence of cimetidine)
[28] = HCT116, absence of cimetidine, read-out: IC50
[29] = HCT116, cimetidine 3 mM, read-out: IC50 (in presence of cimetidine)

SMILES | IC50 [1] [µM] | Resistance Factor (HEK-hNET) | IC50 [2] [µM] | IC50 [3] [µM] | IC50 [4, 20] [µM] | IC50 [4, 21] [µM] | IC50 [5] [µM] | IC50 [6] [µM] | IC50 [7, 22] [µM] | IC50 [7, 23] [µM] | IC50 [9] [µM] | IC50 [10] [µM] | IC50 [11] [µM] | IC50 [12, 24] [µM] | IC50 [12, 25] [µM] | IC50 [13] [µM] | Initial Rate of reaction with glutathione [14] [Absorption unit/hr] | IC50 [15, 26] [µM] | IC50 [15, 27] [µM] | IC50 [17] [µM] | further results
[NH3+][Pt-2]([Cl])([Cl])[NH+]1CCN(c2ccccc2)CC1 [SM73] | 5.24 | 5.5 | 3.58 | 0.005 ± 0.001 | 33 ± 5.27 | 147 | 12.3 ± 0.759 | 16.5 | 19.6 ± 1.17 | 75.8 | 13.1 | 0.036 ± 0.004 | 9.72 | 48.9 ± 8.5 | 195 | 13.6 | 0.1132 | 14.5 ± 8.54 | 109 | 13.8 | Resistance Factor ([4]; SW620, ratio of IC50 in presence and absence of cimetidine): 4.45; selectivity for accumulation into NET-expressing HEK cells (NET-expressing HEK cells): 3.25 fold; Resistance Factor ([7]; RK0, ratio of IC50 in presence and absence of cimetidine): 3.87; ototoxicity [8]: No ototoxicity was observed; Resistance Factor ([12]; ratio of IC50 in presence and absence of cimetidine): 3.98; Resistance Factor ([15]; HT29, ratio of IC50 in presence and absence of cimetidine): >7; IC50 [16, 28]: 18.3 ± 2.28 µM; IC50 [16, 29]: 71.2 µM; Resistance Factor ([16]; HCT116, ratio of IC50 in presence and absence of cimetidine): 3.88; antitumor efficacy against neuroblastoma xenografts (neuroblastoma xenografts): retains the antitumor efficacy of cisplatin to a significant extent; DNA-binding (DNA in HEK cells): increased DNA-binding
[NH2][Pt]([NH2])([Cl])[N]1CCN(c2ccccc2)CC1 [SM71] |  |  |  | 1.26 ± 0.319 |  |  |  |  |  |  |  | 0.745 ± 0.003 |  |  |  |  |  |  |  |  | 
N.N.[Cl][Pt][Cl] [Cisplatin] | 6.16 | 1.8 | 3.77 |  |  |  | 2.62 | 24.5 |  |  | 19.9 |  | 12.4 |  |  | 9.63 | 0.1173 |  |  | 18.6 | IC50 (HEK-hOCT3): 4.84 µM
[NH2][Pt]([NH2])([Cl])[N]1CCN(c2ccccc2)CC1 [SM78] |  |  |  |  |  |  |  |  |  |  |  |  |  |  |  |  |  |  |  |  | IC50 at 7 h ([18]; IC50 HEK-hOCT2, HEK293 stably transfected with human OCT2, MTT, 7 h exposure then 72 h): 2.35 ± 0.313 µM; IC50 at 7 h ([19]; IC50 HEK-hOCT1, HEK293 stably transfected with human OCT1, MTT, 7 h exposure then 72 h): 0.988 ± 0.03 µM
O=C1[O][Pt]2([NH][C@@H]3CCCC[C@H]3[NH]2)[O]C1=O [Oxaliplatin, reference compound] | 15.9 |  | 15.5 |  | 7.16 ± 3.59 | 40 | 1.62 | 24.8 | 2.9 ± 0.77 | 41.7 | 20.4 |  | 29.4 | 21.5 ± 5.3 | 151 | 19.9 | 0.0909 | 13.2 ± 3.3 | 61.2 | 18.8 | IC50 [16, 28]: 6.14 ± 1.8 µM; IC50 [16, 29]: 66.5 µM; IC50 (HEK-hOCT3): 1.32 µM
[NH2][Pt]([Cl])([Cl])[N]1CCN(c2ccc(F)cc2)CC1 [SM85] |  |  |  |  |  |  |  |  |  |  |  |  |  |  |  |  | 0.1037 |  |  |  | IC50 at 7 h [18]: 0.208 ± 0.035 µM; IC50 at 7 h [19]: 0.071 ± 0.014 µM; DNA-binding (DNA in HEK cells): increased DNA-binding

Source: patent US9217007B2, “Platinum anticancer agents” (priority 2011, dated 2015)
